# In ChEMBL document CHEMBL4739717, “Methods of treating cartilage disorders through inhibition of clk and dyrk” (2020):
# Key:
# [1] = Induction of chondrogenesis in human MSC assessed as incubated for 6 days by rhodamine B and Nile red staining based imaging analysis; type: functional; conditions: bmmsc
# [2] = Effect on Wnt signaling pathway in human SW480 cells harbouring TCF/LEF luciferase reporter gene and SP5-Luc reporter gene incubated for 36 to 48 hrs by luminescence assay; type: cell-based
# [3] = target: Dual specificity tyrosine-phosphorylation-regulated kinase 1A (Homo sapiens, UniProt Q13627); assay: Inhibition of recombinant DYRK1A (unknown origin) using Ser/Thr 18 peptide as substrate incubated for 1 hr in presence of ATP by FRET assay
# [4] = Induction of chondrogenesis in human MSC assessed as maximum activity at 100 nM incubated for 6 days by rhodamine B and Nile red staining based imaging analysis relative to control; type: functional; conditions: BMMSC, 144 h, time 6 day
Structure (SMILES),EC50 [1],EC50 [2],EC50 [3],Emax at 0.1 µM [4]
Cc1ncc(-c2ccc3[nH]nc(-c4nc5c(-c6cccc(F)c6)cccc5[nH]4)c3n2)n1C,10 nM,150 nM,80 nM,112%
CCCC(=O)Nc1cncc(-c2cnc3[nH]nc(-c4nc5c(-c6ccoc6)cccc5[nH]4)c3c2)c1,100 nM,63 nM,25 nM,111%
Cc1ccc(-c2cncc3[nH]c(-c4n[nH]c5cnc(-c6cncc(N)c6)cc45)nc23)s1,100 nM,10.9 nM,44 nM,162%
Cc1ccc(-c2cncc3[nH]c(-c4n[nH]c5ccc(-c6cncc(N)c6)nc45)nc23)s1,30 nM,40.7 nM,2 nM,79.4%
CN(C)CCOc1cncc(-c2ccc3[nH]nc(-c4nc5c(-c6cccs6)cccc5[nH]4)c3n2)c1,10 nM,3110 nM,41 nM,142%
CC(C)Nc1cncc(-c2ccc3[nH]nc(-c4nc5c(-c6ccoc6)ccnc5[nH]4)c3n2)c1,100 nM,298 nM,26 nM,64.2%
CN(C)Cc1cncc(-c2cnc3[nH]nc(-c4nc5c(-c6cc(F)cc(N7CCOCC7)c6)cncc5[nH]4)c3c2)c1,30 nM,21 nM,11 nM,114%
Cc1ncc(-c2cnc3[nH]nc(-c4nc5c(-c6cccc(F)c6)nccc5[nH]4)c3c2)n1C,100 nM,12.5 nM,5 nM,152%
CCNCc1cncc(-c2ccc3[nH]nc(-c4cc5c(-c6cc(F)cc(CNS(C)(=O)=O)c6)cncc5[nH]4)c3c2)c1,100 nM,> 10000 nM,21 nM,58%
Cn1cc(-c2cc3c(-c4nc5c(-c6cccc(F)c6)cncc5[nH]4)n[nH]c3cn2)cn1,100 nM,70 nM,15 nM,71%
CN(C)c1cncc(-c2ccc3[nH]nc(-c4nc5c(-c6cccc(F)c6)cncc5[nH]4)c3n2)c1,10 nM,638 nM,25 nM,154%
c1cncc(-c2ccc3[nH]nc(-c4nc5c(-c6ccoc6)cncc5[nH]4)c3c2)c1,100 nM,45.4 nM,3 nM,149%
Cc1ccncc1-c1cc2c(-c3cc4cnccc4[nH]3)n[nH]c2cn1,10 nM,389 nM,11 nM,61.4%
CCC(=O)Nc1cncc(-c2cnc3[nH]nc(-c4cc5c(-c6cccc(F)c6)cncc5[nH]4)c3c2)c1,10 nM,246 nM,13 nM,113%
O=C(Nc1cncc(-c2cnc3[nH]nc(-c4cc5cccnc5[nH]4)c3c2)c1)C1CCCCC1,,1260 nM,11 nM,28.5%
CC(C)CC(=O)Nc1cncc(-c2ccc3[nH]nc(-c4nc5c(-c6cc(F)cc(CNS(C)(=O)=O)c6)cncc5[nH]4)c3c2)c1,100 nM,5 nM,16 nM,118%
FC1(F)CCN(Cc2cncc(-c3ccc4[nH]nc(-c5cc6c(N7CCCCC7)ccnc6[nH]5)c4n3)c2)C1,,5270 nM,30 nM,37.6%
CC(C)CC(=O)Nc1cncc(-c2cc3c(-c4cc5cccnc5[nH]4)n[nH]c3cn2)c1,,> 10000 nM,13 nM,40.4%

Structure (SMILES),EC50 [1],EC50 [2],EC50 [3],Emax at 0.1 µM [4]
Nc1cncc(-c2ccc3[nH]nc(-c4nc5c(-c6ccccc6F)ccnc5[nH]4)c3n2)c1,10 nM,> 10000 nM,15 nM,127%
c1cc2[nH]c(-c3n[nH]c4ncc(-c5cncc(CN6CCCCC6)c5)cc34)cc2cn1,,1540 nM,7 nM,39.7%
CC(C)Nc1cncc(-c2cnc3[nH]nc(-c4nc5c(-c6cccc(F)c6)cncc5[nH]4)c3c2)c1,30 nM,1.2 nM,20 nM,504%
CC(C)CC(=O)Nc1cncc(-c2ccc3[nH]nc(-c4nc5c(-c6ccc(F)cc6)cncc5[nH]4)c3c2)c1,100 nM,57 nM,60 nM,125%
Cc1ccncc1-c1ccc2[nH]nc(-c3cc4c(-c5cccnc5)cncc4[nH]3)c2n1,10 nM,> 10000 nM,45 nM,149%
Cc1ccc(-c2cncc3[nH]c(-c4n[nH]c5cnc(-c6cncc(NC(=O)C7CCC7)c6)cc45)nc23)s1,100 nM,10.1 nM,12 nM,231%
CC(C)(C)CC(=O)Nc1cncc(-c2cc3c(-c4cc5cnccc5[nH]4)n[nH]c3cn2)c1,10 nM,1890 nM,3 nM,58.8%
CC(C)Nc1cncc(-c2ccc3[nH]nc(-c4nc5c(-c6cccnc6)ccnc5[nH]4)c3n2)c1,10 nM,1750 nM,14 nM,114%
CCC(=O)Nc1cncc(-c2cnc3[nH]nc(-c4nc5c(-c6ccsc6)cccc5[nH]4)c3c2)c1,100 nM,10 nM,76 nM,167%
CC(C)Nc1cncc(-c2ccc3[nH]nc(-c4cc5c(-c6cccnc6)ccnc5[nH]4)c3n2)c1,,255 nM,25 nM,47.2%
CC(C)C(=O)Nc1cncc(-c2ccc3[nH]nc(-c4nc5c(-c6cccnc6)cncc5[nH]4)c3c2)c1,,5.1 nM,10 nM,34.4%
Fc1cccc(-c2cncc3[nH]c(-c4n[nH]c5ncc(-c6cccnc6)cc45)cc23)c1,,572 nM,57 nM,35.6%
FC1(F)CCN(Cc2cncc(-c3ccc4[nH]nc(-c5nc6c(-c7ccsc7)cncc6[nH]5)c4c3)c2)C1,,1.8 nM,15 nM,81.3%
Cc1cn(-c2cncc3[nH]c(-c4n[nH]c5ccc(-c6cncc(NC(=O)C7CCC7)c6)nc45)nc23)cn1,,> 10000 nM,8 nM,47.2%
CCNCc1cncc(-c2cnc3[nH]nc(-c4cc5c(-c6ccccc6F)cncc5[nH]4)c3c2)c1,,2300 nM,14 nM,37.3%
Nc1cncc(-c2cnc3[nH]nc(-c4cc5c(-c6ccccc6F)ccnc5[nH]4)c3c2)c1,,745 nM,59 nM,27.6%
FC1(F)CCN(Cc2cncc(-c3cnc4[nH]nc(-c5cc6c(-c7ccncc7)cccc6[nH]5)c4c3)c2)C1,,708 nM,76 nM,29.2%

# Second part, led by results:
EC50 [1],EC50 [2],EC50 [3],Structure (SMILES),Emax at 0.1 µM [4]
100 nM,572 nM,40 nM,CCCCC(=O)Nc1cncc(-c2ccc3[nH]nc(-c4cc5c(N6CCCCC6)cccc5[nH]4)c3n2)c1,68.6%
100 nM,1170 nM,7 nM,CN1CCN(c2ccnc3[nH]c(-c4n[nH]c5ccc(-c6cncc(N)c6)cc45)cc23)CC1,50.2%
100 nM,8.8 nM,6 nM,Nc1cncc(-c2ccc3[nH]nc(-c4nc5c(-c6ccccc6F)nccc5[nH]4)c3c2)c1,61.9%
30 nM,711 nM,23 nM,CC(C)CC(=O)Nc1cncc(-c2cnc3[nH]nc(-c4cc5c(-c6ccncc6)cccc5[nH]4)c3c2)c1,71.4%
,3300 nM,10 nM,c1cnc2[nH]c(-c3n[nH]c4ccc(-c5cncc(OCCN6CCCC6)c5)cc34)cc2c1,42.7%
,554 nM,34 nM,CS(=O)(=O)NCc1cc(F)cc(-c2cncc3[nH]c(-c4n[nH]c5ccc(-c6cncc(NC(=O)C7CCC7)c6)cc45)cc23)c1,14.5%
30 nM,250 nM,53 nM,Cn1cc(-c2ccc3[nH]nc(-c4cc5c(-c6cccnc6)cncc5[nH]4)c3c2)cn1,65.2%
,45 nM,27 nM,CCC(=O)Nc1cncc(-c2ccc3[nH]nc(-c4cc5c(-c6cccc(F)c6)cncc5[nH]4)c3c2)c1,33.5%
,1910 nM,33 nM,c1ncc(-c2ccc3[nH]nc(-c4cc5c(-c6ccoc6)nccc5[nH]4)c3c2)cn1,40.2%
100 nM,13.2 nM,33 nM,CCC(=O)Nc1cncc(-c2ccc3[nH]nc(-c4cc5c(-c6cccc(F)c6)ccnc5[nH]4)c3c2)c1,167%
100 nM,330 nM,34 nM,O=C(Nc1cncc(-c2cc3c(-c4cc5c(-c6cccnc6)cccc5[nH]4)n[nH]c3cn2)c1)C1CC1,308%
,5270 nM,22 nM,CN1CCN(c2nccc3[nH]c(-c4n[nH]c5ccc(-c6cncc(NC(=O)C7CCCCC7)c6)cc45)cc23)CC1,37.8%
,2140 nM,16 nM,CN1CCN(c2nccc3[nH]c(-c4n[nH]c5ccc(-c6cncc(NC(=O)c7ccccc7)c6)cc45)cc23)CC1,34.6%
,22.4 nM,13 nM,Nc1cncc(-c2ccc3[nH]nc(-c4cc5c(-c6ccccn6)ccnc5[nH]4)c3c2)c1,46.1%
,244 nM,22 nM,CCC(=O)Nc1cncc(-c2ccc3[nH]nc(-c4cc5c(-c6cc(F)cc(CNS(C)(=O)=O)c6)cncc5[nH]4)c3c2)c1,29.4%
,890 nM,20 nM,CC(C)(C)CC(=O)Nc1cncc(-c2ccc3[nH]nc(-c4cc5c(-c6ccoc6)ccnc5[nH]4)c3c2)c1,21.2%
